Experiments:
[1] = system: MDA-MB-231; experiment: expression of LXR target genes in breast cancer cells; type: cell-based; conditions: MDA-MB-231, triple-negative
Excerpt: (§1) The inhibitory effects of LXR ligands in breast cancer cells have been shown previously. […] The observed decreases in LXR protein levels were not affected by proteasome inhibitor MG132.

[2] = system: MCF-7; experiment: as above; type: cell-based; conditions: MCF-7, ER-positive
Excerpt: as §1

[3] = system: LXR proteins in MCF-7 cells; experiment: western blot of LXR protein levels; type: cell-based
Excerpt: as §1

[4] = system: LXR in MDA-MB-231 cells; experiment: western blot of LXR protein levels; type: cell-based
Excerpt: as §1

[5] = system: pancreatic cancer cells; experiment: metabolomic analysis using mass spectroscopy in pancreatic cancer cells; type: cell-based, human; conditions: PDAC cells
Method: To further characterize the mechanisms of action of novel LXR modulators 1E5 and 3A4, metabolomic and transcriptomic analysis of pancreatic cancer cells were conducted in response to treatment. […] PDAC tumors have altered metabolism to support its growth and survival. Previous studies have reported that Kras upregulates the non-canonical use of glutamine to maintain NADPH/NADP+ ratio which in turn regulates redox homeostasis. This unconventional use of glutamine by PDAC cells fuel cancer cell proliferation and survival. Glutamine metabolism in PDAC has two unique functions: 1. Glutamine-derived Glutamate is used for glutathione (GSH) biosynthesis. 2. Glutamine facilitates generation of reducing equivalents in the form of NADPH. In PDAC mitochondria, glutamine is converted to glutamate by glutaminase enzyme (GLS1). This glutamine derived glutamate is conventionally converted to alpha-ketoglutarate by glutamate dehydrogenase (GLUD1) to fuel citric acid cycle. However, in PDAC cells glutamate is converted to aspartate in cytosol which is converted to malic acid and NADPH is produced during this process. This process is essential to maintain redox homeostasis in the tumor. However, this non-canonical use of glutamine is dispensable in non-malignant cells. Therefore, targeting GLS1 to decrease the bioavailability of glutamate to act as source of nitrogen and carbon for the synthesis of amino acids and nucleic acids is a viable strategy to target PDAC tumors. […] The effect of 1E5 is similar to BPTES, a potent GLS1 inhibitor.
TCA cycle intermediates act as anaplerotic substrate for gluconeogenesis and lipogenesis. […] GOT2 converts glutamine-derived glutamate to alpha-KG. During this process oxaloacetate is converted to aspartate which is required to maintain redox homeostasis. Studies have shown that inhibition of GOT2 in PDAC promotes senescence.
(§2) To determine if 1E5 and 3A4 can induce apoptosis, PDAC cells were treated with the LXR ligands and subjected to pro-apoptotic caspase cleavage analysis. […] Metabolomic profiling following treatments with the two ligands indicated the activation of two distinct cell death mechanisms. Ferroptosis is a non-apoptotic form of cell death which is characterized by accumulation of lipid peroxides by loss of glutathione peroxidase 4 (GPX4) activity. It can also be induced by accumulation of intracellular iron and depletion of reduced glutathione (GSH). GPX4 is an anti-oxidant enzyme involved in conversion of PUFA peroxides to PUFA alcohols. GSH is a critical cofactor of GPX4 and acts as a reducing agent to reduce the lipid peroxides. Therefore, direct inhibition of GPX4 activity or reduction in GSH levels trigger ferroptosis. The second mechanism of inducing ferroptosis is accumulation of polyunsaturated fatty acids (PUFAs) in cells. Studies have shown that PUFAs are the most susceptible lipids to peroxidation.
Expression profiles of ferroptosis genes in RNAseq data following 1E5 treatment were also consistent with its pro-ferroptotic actions. […] Polyamines are amino-acid derived polycationic alkylamines that are required for the growth of cells. SAT1 catalyzes the acetylation of spermidine and spermine to form N-acetylspermidine and N-acetylspermine respectively. […] SAT1 induces ferroptosis by upregulating the peroxidation of PUFA arachidonic acid. Ceramides are sphingolipids consisting of sphingosine and fatty acid acyl chain. Cellular stress leads to upregulation of ceramide synthesis which mediate caspase-dependent apoptosis. Accumulation of ceramides/hexosylceramides in the mitochondria leads to the formation of channel like structures in the mitochondrial outer membrane which increases the permeability of pro-apoptotic proteins such as cytochrome c. ER stress is also known to activate de-novo synthesis of ceramides and induce apoptosis by increasing the flow of Ca ions and upregulating the unfolded protein stress response. […]

[6] = system: HPNE cells; experiment: growth of non-transformed pancreatic epithelial cells (WST screen; FIG. 32D); type: cell-based, human; conditions: WST screen
Method: (§3) The initial identification and subsequent characterization of the two novel LXR ligands and their derivative compounds was carried out in screens in three human pancreatic cancer cell and one non-transformed human pancreatic epithelial cell line in three or more replicate experiments for each cell line using the WST tetrazolium salt reduction assays.
(§4) The synthesis and characterization of KD-01-39, a derivative of 3A4, have not been described previously.

[7] = molecular target: T1, LXR proteins (Homo sapiens, UniProt P55055); experiment: LXR protein levels after long-term treatment of pancreatic cancer cells; type: cell-based; conditions: long-term treatments
T1 construct: expression of LXR proteins in different pancreatic cancer cell lines following long-term treatments; endogenous in cells; host or cells: pancreatic cancer cell lines (BxPC-3, MIA PaCa-2, PANC-1 named elsewhere)
Method: (§5) To elucidate mechanisms of inverse agonism by the novel ligands, TR-FRET experiments were conducted to determine the effects of 1E5 and 3A4 on the recruitment of NR co-activators and co-repressors. […] In addition to their functions as inverse agonists, extended treatments with 1E5 and 3A4 also destabilized or decreased LXR proteins.

[8] = system: PDAC cell lines; experiment: tetrazolium salt reduction (WST) assay in PDAC cell lines; type: cell-based, human; conditions: WST screen, three human pancreatic cancer cell lines
Method: To determine the effects of LXR ligands on PDAC cell proliferation, cells were treated with synthetic LXR agonist GW3965 and live cells were quantified using trypan blue exclusion assays. […] FIGS. 8A, 8B, and 8C show dose-dependent decreases in cell proliferation in BxPC-3, Mia-PaCa-2, and PANC-1, respectively upon treatment with increasing GW3965 concentrations. […] Clonogenic assays were also employed to evaluate the effects of long-term LXR ligand treatment on cell proliferation and colony formation. […] These findings indicate that LXRs are involved in PDAC cell proliferation and targeting LXRs with ligands perturb their normal functions in cell proliferation.
as §3

[9] = system: LXR-LBD; experiment: differential scanning fluorimetry; type: binding
Excerpt: as §4

[10] = system: PDAC cells; experiment: pro-apoptotic caspase cleavage analysis; type: cell-based, human
Method: as §2
Accumulation of C18 ceramides in the mitochondria leads to the recruitment of auto phagosomes in mitochondria and induces LC3-ceramide dependent lethal mitophagy. […] Darkened circles indicate increases and the size of the circle corresponds to the significance of changes.

[11] = system: human PDAC cell lines; experiment: cell viability response curves with increasing concentrations; type: cell-based
[12] = system: MCF-7 cells; experiment: breast cancer cell proliferation; type: cell-based
Excerpt: as §1

[13] = system: MDA-MB-231 cells; experiment: breast cancer cell proliferation; type: cell-based
Excerpt: as §1

[14] = system: LXR target genes SREBF1c, ABCA1, and ABCG1; experiment: expression of LXR target genes in pancreatic cancer cell lines; type: cell-based, human
Excerpt: To characterize the activity of the newly discovered ligands, the expression of LXR target genes SREBF1c, ABCA1, and ABCG1 was examined following treatment with vehicle, synthetic agonist GW3965, and Compounds 1E5 and 3A4. […] Basal expression of SREBF1c, the canonical LXR target gene involved in the regulation of glucose and lipid metabolism, was disrupted by the addition of novel LXR ligands, whereas their expression was induced following treatment with synthetic agonist GW3965 in all three pancreatic cancer cell lines tested, whereas the effects on ABCA1 and ABCG1 varied between the two novel ligands and across the cell lines.
as §5

[15] = system: LXR ligand-binding domain; experiment: TR-FRET assay of co-activator and co-repressor peptide recruitment; type: biochemical
Method: as §5, §4

[16] = system: KPC tumor cells; experiment: growth of KPC tumor cells from mouse model of PDAC; type: cell-based
Excerpt: The effects of the ligands and derivatives on the growth of PDAC cells were further validated by cell counting and clonogenic assays.

T1 sequence (P55055 whole entry): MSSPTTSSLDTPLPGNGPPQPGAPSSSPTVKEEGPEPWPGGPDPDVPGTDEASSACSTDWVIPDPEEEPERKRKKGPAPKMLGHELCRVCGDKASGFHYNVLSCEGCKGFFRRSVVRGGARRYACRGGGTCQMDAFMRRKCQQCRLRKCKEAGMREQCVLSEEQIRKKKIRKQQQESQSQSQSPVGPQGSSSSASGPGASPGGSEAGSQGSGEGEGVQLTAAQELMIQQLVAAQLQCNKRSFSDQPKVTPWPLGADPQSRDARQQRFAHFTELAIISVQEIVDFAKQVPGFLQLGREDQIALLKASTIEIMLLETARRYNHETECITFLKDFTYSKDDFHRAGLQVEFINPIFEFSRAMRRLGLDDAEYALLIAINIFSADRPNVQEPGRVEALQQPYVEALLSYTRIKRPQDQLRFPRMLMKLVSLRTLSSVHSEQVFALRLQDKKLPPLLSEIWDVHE

activity against non-transformed HPNE cells [6]: little activity | LXR protein levels [7]: decreased LXR protein levels | binding of NCOR and SMRT co-repressor peptides ([15]; co-repressor (NCOR and SMRT-ID2) peptides): increased the binding
SMILES: COc1cc(OC)cc(C(=O)N2CCN(c3ccccc3C)CC2)c1 [Compound 3A4, 1-(3,5-dimethoxybenzoyl)-4-(2-methylphenyl)piperazine]
expression of LXR target genes [1]: generally down-regulated | expression of LXR target genes [2]: generally down-regulated | LXR protein levels (degradation) [3]: act as degraders of LXR proteins | LXR protein levels (degradation) [4]: only 1E5 degraded LXR | levels of C18 and C16 ceramides and hexosylceramides [5]: significantly upregulates | human pancreatic cancer cells growth [8]: effective in inhibiting human pancreatic cancer cells growth | LXR-LBD structure and dye dissociation with increasing temperature [9]: disrupted the LBD structure | pro-apoptotic caspase cleavage [10]: induced pro-apoptotic caspase cleavage | apoptosis ([10]; PDAC cells): induces caspase-dependent apoptosis | potency in response curves compared to GW3965 [11]: more potent activity as compared to GW3965 | proliferation of MCF-7 cells [12]: inhibited the proliferation | proliferation of MDA-MB-231 cells [13]: inhibited | basal expression of SREBF1c ([14]; all three pancreatic cancer cell lines): disrupted | expression of FASN, SCD, and ACC ([14]; pancreatic cancer cells): decreased the expression | expression of LXR target genes ([14]; three pancreatic cancer cell lines): reducing the expression of LXR target genes | co-activator peptide binding to LXR ligand-binding domain ([15]; co-activator (D22) peptide): did not affect co-activator peptide binding | growth of KPC tumor cells [16]: blocked the growth

From patent publication US20220273658A1, “SMALL MOLECULE LIVER X RECEPTOR MODULATORS AND USES THEREOF” (University of Houston System, priority 2019, published 2022)
